Assay results reported in PubChem BioAssay AID651703 (Broad Institute, 2012).

These compounds were tested against Transforming acidic coiled-coil-containing protein 3 (Homo sapiens) (UniProt Q9Y6A5) (assay: ARNT/TACC3 interaction disruptors, potency, confirmation, biochemical, AlphaScreen, cherry-picked samples (AID 651703;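 note: TACC3 partner is the GST-tagged E629A mutant dimer; hits lower the signal meaning they disrupt ARNT binding to TACC3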)). Settings: AlphaScreen His-ARNT PAS-B / GST-TACC3 binding, luminescence.

Structure (SMILES) | AC50 [µM]
O=C(CSc1nnc(-c2ccccn2)o1)Nc1ccccc1Cl | 9.92
C[C@H]1CN([C@@H](C)CO)C(=O)Cc2cc(NC(=O)Nc3cccc4ccccc34)ccc2O[C@@H]1CN(C)Cc1ccc(Oc2ccccc2)cc1 | 47.3
Cn1c(-c2ccccc2)cnc1Nc1nc(-c2ccccn2)nnc1-c1ccccc1 | 2.26
N#CC1(c2ccccc2)CCN(Cc2ccc(O)c3ncccc23)CC1 | 3.66
COC(=O)c1ccc(CSc2ccc3nnc(-c4ccccn4)n3n2)o1 | 17.4
N[C@@H]1CC[C@@H](CCn2cc(-c3ccccn3)nn2)O[C@H]1CO | 0.565
c1ccc(-c2nnc(-c3ccccn3)nc2Nc2nc3ccccc3s2)cc1 | 0.509
O=C(CSc1ccc(-c2ccccn2)nn1)c1ccccc1 | 3.36
Oc1c(C(Nc2cccc(C(F)(F)F)c2)c2ccncc2)ccc2cccnc12 (stereo not given) | 0.575
N#CCC(=O)N/N=C\c1ccccc1OC/C=C/c1ccccc1 | 6.51
c1ccc(-c2nnc(-c3ccccn3)nc2NCc2cccnc2)cc1 | < 0.5
CC(C)(C)c1ccc(CNc2nc(-c3ccccn3)nnc2-c2ccccc2)cc1 | 1.33
CC1CCN(S(=O)(=O)c2ccc(C(=O)Nc3nnc(C4=COCCO4)o3)cc2)CC1 | 1.21
O=C(COC(=O)c1ccco1)Nc1nnc(-c2ccccc2)o1 | 24.8
Cc1ccc(C(=O)Nc2nc(-c3ccccn3)cs2)o1 | 2.07
CCN1CCN(C(c2cccnc2)c2cc(Cl)c3cccnc3c2O)CC1 (stereo not given) | 4.03
Cc1ccc(S(=O)(=O)N2CCOCC2)cc1NC(=O)CNCc1ccccn1 | 6.07
N#CC1=C(N)Oc2c(ccc3cccnc23)C1c1ccncc1 (stereo not given) | 26.9
O=C(CSc1cccc2cccnc12)Nc1ccc(S(=O)(=O)N2CCOCC2)cc1 | 10.9
O=C(N/N=C/c1sc2ccccc2c1O)c1cccc2ccccc12 | 23
Oc1c(CN2CCN(c3ccc(F)cc3)CC2)cc(Cl)c2cccnc12 | 2.5
COc1cc(OC)cc(C(=O)Nc2nnc(-c3cccnc3)o2)c1 | 20.8
O=[N+]([O-])c1cc(Cl)cc(/C=N\Nc2ccccn2)c1O | 5.13

Structure (SMILES) | AC50 [µM]
Oc1ccc(Cn2ccnc2)c2cccnc12 | < 0.5
O=C(Nc1nc(-c2ccccn2)cs1)c1ccco1 | 2.17
COC(=O)c1ccccc1-c1ccc(C(c2c(C)[nH][nH]c2=O)c2c(C)[nH][nH]c2=O)o1 | 15.7
C/C=C/c1ccc([C@H]2[C@@H](CNC(=O)CC)N(Cc3ccccn3)[C@H]2CO)cc1 | 45
O=C(CSC1=NNC(c2ccccn2)S1)Nc1ccccc1 (stereo not given) | 0.823
O=C(CSc1n[nH]c(-c2ccccn2)n1)Nc1ccc(Cl)cc1 | 2.08
O=C(CN1C(=O)C2CCCCC2C1=O)Nc1nc(-c2ccccn2)cs1 (stereo not given) | 5.15
CS(=O)(=O)c1ccccc1-c1nnc(NC(=O)c2ccc3ncsc3c2)o1 | 25.4
O=C(CSc1ccc(-c2ccccn2)nn1)NC1CCCCC1 | 2.56
Cc1ccc2nc(-c3ccccn3)c(NC3CCCC3)n2c1 | 10.2
Cc1ccc(CNc2nc(-c3ccccn3)nnc2-c2ccccc2)cc1C | 0.558
O=C(NC[C@@H]1[C@H](c2ccccc2)[C@H](CO)N1Cc1ccccn1)C1CCC1 | 28.2
Oc1ccc(/C=N/Nc2ncc(Br)cn2)c(O)c1 | 6.19
O=C(CSc1ccc2nnc(-c3ccccn3)n2n1)Nc1ccccc1F | 28.6
COc1ccc(C(=O)Cc2nnc(C)s2)c(OC)c1 | 67.3
COc1ccc(NC(=O)N[C@H]2CC[C@@H](CCn3cc(-c4ccccn4)nn3)O[C@@H]2CO)cc1 | 13.3
C[C@H]1CN([C@@H](C)CO)C(=O)c2cccc(NC(=O)Nc3cccc4ccccc34)c2O[C@@H]1CN(C)S(=O)(=O)c1ccc(Cl)cc1 | 51.9
O=C(CSc1ccc2nnc(-c3ccccn3)n2n1)NCc1ccco1 | 9.49
Cc1sc2ncnc(N/N=C/c3ccccc3O)c2c1C | 10.1
Cc1ccc(Nc2nc(N)nc(CN3CCCCCC3)n2)cc1 | 34.4
C[C@H](Nc1nc(-c2ccccn2)nnc1-c1ccccc1)C1CCCCC1 | 0.53
Cc1ccc(NC(=O)CSc2n[nH]c(-c3ccccn3)n2)cc1 | 2.26
O=c1cc(CSc2ccc(Cl)cc2)nc(-c2ccccn2)[nH]1 | 3.69

Structure (SMILES) | AC50 [µM]
O=C(Nc1nnc(-c2cccs2)o1)c1ccc(S(=O)(=O)N2CCOCC2)cc1 | 17.1
O=C(N[C@@H]1CC[C@@H](CCn2cc(-c3ccccn3)nn2)O[C@H]1CO)c1ccccc1 | 9.23
Cc1ccccc1-n1c(SCC(=O)Nc2ccc3c(c2)OCO3)nnc1-c1ccccn1 | 15.6
Cc1ccc(Nc2c(-c3ccccn3)nc3cc(C)ccn23)cc1 | 3.02
O=C(O)C1CCCCC1C(=O)NCCCn1ccnc1 (stereo not given) | 54.4
CN(Cc1ccccc1)CC(O)COc1ccc(CNCc2nccn2C)cc1 (stereo not given) | 47.9
O=C(NC[C@H]1[C@@H](c2ccccc2)[C@@H](CO)N1Cc1ccccn1)C1CCC1 | 51.5
COc1ccc(/C=N/Nc2nncn2N)cc1Br | 25.1
c1ccc(-c2nccc(-c3ccco3)n2)nc1 | 11.2
Cc1c(CCO)c(=O)n(-c2ccccc2)n1S(=O)(=O)c1c(Cl)cc(Cl)cc1Cl | 39.8
CN(CC(=O)O)Cc1nc2ccccc2[nH]1 | 7.77
c1ccc(-c2nnc(-c3ccccn3)nc2Nc2cnc3ccccc3n2)cc1 | < 0.5
COc1cc(CNCc2ccccn2)ccc1OCc1c(Cl)cccc1Cl | 43.4
Cc1ccccc1CSc1nnc(-c2ccccn2)n1N | 31.7
Cc1ccc(C)c(-n2c(SCC(N)=O)nnc2-c2ccccn2)c1 | 20
Cn1c(-c2ccc3c(c2)OCO3)cnc1N | 39
O=C(CCS(=O)(=O)c1ccccc1)Nc1nc(-c2ccccn2)cs1 | 11.2
CCc1cc(C(=O)Nc2nc(-c3ccccn3)cs2)sc1C | 22.9
CCOc1cc(N2CCOCC2)c(OCC)cc1NC(=O)COc1cccc2cccnc12 | 20.3
O=S(=O)(N[C@@H]1CC[C@@H](CCn2cc(-c3ccccn3)nn2)O[C@H]1CO)c1cccc(F)c1 | 21.5
OCC1CCN(c2nc(-c3ccccn3)nnc2-c2ccccc2)CC1 | 1.03
O=S(=O)(c1ccccc1)N1C[C@@H]2[C@H](c3ccccc31)[C@H](CO)N2Cc1ccccn1 | 61.5
O=C(NN=Cc1c(O)ccc2ccccc12)c1ccncc1 | 9.94

Structure (SMILES) | AC50 [µM]
O=C(Nc1nc(-c2ccccn2)cs1)C1CCCC1 | 15.5
NNc1ccc(S(=O)(=O)N2CCCCC2)cn1 | 9.17
O=C(NC12CC3CC(CC(C3)C1)C2)c1ccc(-c2ccccc2Cl)o1 | 51
Cc1nc2ccccc2n1CC(=O)c1ccc(O)c(O)c1 | 49.8
O=C(N[C@@H]1CC[C@@H](CCn2cc(-c3ccccn3)nn2)O[C@H]1CO)c1ccncc1 | 16.7
NC1=CC(=O)C(=O)c2ccccc21 | 38.9
CC(C)C1Cc2c(sc3ncnc(NN)c23)CO1 (stereo not given) | 7.67
O=C(Nc1nc(-c2ccccn2)cs1)c1cc(Cl)ccc1[N+](=O)[O-] | 3.07
Cc1cccc(Nc2nc(-c3ccccn3)nnc2-c2ccccc2)n1 | < 0.5
O=C(Nc1nnc(-c2ccccn2)o1)c1cccc(Cl)c1 | 30.2
O=C(CSc1ccc2nnc(-c3ccccn3)n2n1)Nc1ccccc1C(F)(F)F | 50.7
O=C(CNS(=O)(=O)c1ccc([N+](=O)[O-])cc1)N/N=C/c1ccc(O)cc1O | 19.2
NC(CO)C(=O)NNCc1ccc(O)c(O)c1O (stereo not given) | 13.3
N[C@H]1CC[C@H](CCn2cc(-c3ccccn3)nn2)O[C@@H]1CO | 1.03
CCc1ccc(NC(=O)CSc2ccc(-c3ccccn3)nn2)cc1 | 4.37
CC(=O)Nc1cccc(NC(=O)CSc2ccc(-c3ccccn3)nn2)c1 | 2.78
O=S(=O)(N[C@@H]1CC[C@@H](CCn2cc(-c3ccccn3)nn2)O[C@H]1CO)c1cccc(Cl)c1 | 15.3
O=C(Nc1nc(-c2ccccn2)cs1)c1ccc(F)c(S(=O)(=O)N2CCOCC2)c1 | 2.76
O=C(O)c1ncn(Cc2ccccc2)c1C(=O)O | 13.8
CN1CCN(C(=O)c2cccc(-c3cc(O)c4ncccc4c3)c2)CC1 | 2.72
O=C(NC[C@@H]1[C@H](c2ccccc2)[C@H](CO)N1Cc1ccccn1)C1CC1 | 59.6
COc1ccc(Cc2nnc(NN)[nH]c2=O)cc1OC | 6.72
C[C@@H]1CN([C@H](C)CO)C(=O)Cc2cc(N(C)C)ccc2O[C@H]1CN(C)Cc1ccc(Oc2ccccc2)cc1 | 27.5

Structure (SMILES) | AC50 [µM]
Oc1c(CN2CCOCC2)cc(COCc2ccccc2)c2cccnc12 | 0.614
Oc1ccc(C2=Nn3c(nnc3-c3ccco3)SC2)cc1O | 6.22
O=C(Nc1nccs1)c1cnccn1 | 63.9
CCc1ccc2c(c1)C1(NN=C(c3ccc(C)cc3)S1)C(=O)N2 (stereo not given) | 1.52
Cc1ncc(CO)c(/C=N/NC(=O)c2cc(Br)ccc2O)c1O | 8.86
CCC(=O)NC(c1ccc(C)cc1)c1cc([N+](=O)[O-])c2cccnc2c1O (stereo not given) | 3.54
CCOc1ccc(C(=O)CCNC(Cc2cnc[nH]2)C(=O)O)cc1 (stereo not given) | 41.2
O=C(CSc1nnc(-c2ccccn2)o1)Nc1ccccc1F | 13
Cc1cccc(CSc2cccc3cccnc23)c1 | 1.79
O=C(NCCCn1ccnc1)Nc1cccc(Cl)c1 | 9.64
CCOc1cc(CNCc2ccccn2)cc(Cl)c1OC | 39.7
c1ccc(CCNc2nc(-c3ccccn3)nnc2-c2ccccc2)cc1 | 0.513
CCCCCC/C=N/Nc1nnc(Cc2ccc(OC)c(OC)c2)c(=O)[nH]1 | 25.1
CC(Nc1nc(-c2ccccn2)nnc1-c1ccccc1)c1ccccc1 (stereo not given) | 0.564
COc1ccc(NC(=O)N[C@H]2CC[C@H](CCn3cc(-c4ccccn4)nn3)O[C@@H]2CO)cc1 | 12
Cc1cccc(C(=O)Nc2nnc(-c3cccnc3)o2)c1 | 21.7
c1ccc(-c2nnc(-c3ccccn3)nc2NCC2CCCCC2)cc1 | 0.994
O=C(COC(=O)c1ccc([N+](=O)[O-])s1)NCc1ccccc1 | 37
Oc1ccc(CNC2Cc3ccccc3C2)c2cccnc12 | 0.63
O=C(N/N=C/c1cc([N+](=O)[O-])ccc1O)c1ccncc1 | 1.01
Clc1ccc(OCc2nc(-c3ccccn3)n[nH]2)cc1 | 5.91
O=C(CNCc1ccccn1)Nc1ccc([N+](=O)[O-])cc1C(=O)Nc1ccccc1F | 3.05
O=C(N[C@@H]1CC[C@@H](CCn2cc(-c3ccccn3)nn2)O[C@H]1CO)c1ccc(F)cc1 | 10.2
